# ChEMBL document CHEMBL1201862, “PubChem BioAssay data set” (2004)
# Activity calls are given as the source filed them.
# How the values were obtained:
# [1] = NIH3T3 cell viability loss – ATP luminescence, mouse fibroblasts, counter-screen, dose response (AID 2010); assay type: functional, cell-based;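 also: cells exposed to compound for about 90 hours before reading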
# cells = assay type: functional
# [2] = THP-1 cell cytotoxicity, dose response, cytotoxicity control for non-replicating M. tuberculosis project (AID 489025); assay type: functional
# [3] = microbe, parasite or virus in culture; assay type: functional; conditions: Mycobacterium tuberculosis
# [4] = HepG2 cell cytotoxicity, dose response, cytotoxicity control for non-replicating M. tuberculosis project (AID 489018); assay type: functional; conditions: Mycobacterium tuberculosis
# [5] = Vero E6 cell cytotoxicity, dose response, cytotoxicity control for non-replicating M. tuberculosis project, secondary assay (AID 492998); assay type: functional, VeroE6; conditions: Vero C1008
# Protein skinhead-1 = molecular target: T1, Protein skinhead-1 (Caenorhabditis elegans, UniProt P34707); assay type: functional
# T1 sequence (P34707 whole entry): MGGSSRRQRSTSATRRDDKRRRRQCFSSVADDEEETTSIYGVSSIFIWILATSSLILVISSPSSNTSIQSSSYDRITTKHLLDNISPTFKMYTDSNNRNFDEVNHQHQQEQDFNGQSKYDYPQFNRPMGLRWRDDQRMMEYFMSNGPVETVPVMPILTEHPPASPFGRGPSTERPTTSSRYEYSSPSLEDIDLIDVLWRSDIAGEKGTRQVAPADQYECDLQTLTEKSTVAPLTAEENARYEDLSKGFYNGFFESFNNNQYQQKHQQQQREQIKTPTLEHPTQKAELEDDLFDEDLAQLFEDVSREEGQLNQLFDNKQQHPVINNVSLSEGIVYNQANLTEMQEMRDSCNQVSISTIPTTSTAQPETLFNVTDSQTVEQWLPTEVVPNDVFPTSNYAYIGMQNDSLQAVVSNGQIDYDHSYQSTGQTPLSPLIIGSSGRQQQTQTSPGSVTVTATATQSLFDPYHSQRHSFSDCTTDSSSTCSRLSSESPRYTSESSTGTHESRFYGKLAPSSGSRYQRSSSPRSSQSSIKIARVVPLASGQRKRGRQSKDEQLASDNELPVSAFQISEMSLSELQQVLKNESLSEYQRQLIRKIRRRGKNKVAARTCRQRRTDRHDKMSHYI
# [6] = Trypanosoma cruzi growth suppression in host cells – NIH3T3 host cells, beta-gal luminescence, confirmation (AID 2044); assay type: functional, cell-based;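 also: intracellular parasites grown in NIH/3T3 mouse fibroblasts as host cells; luminescent beta-galactosidase reporter signal from transgenic T. cruzi replicating inside host cells; inhibitors lower the luminescence signal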
# Large T antigen = Large T antigen (Simian virus 40, UniProt P03070); assay type: functional, Betapolyomavirus macacae;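 also: Confirmatory-stage PubChem screen for compounds that inhibit SV40 T antigen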
# Large T antigen, sequence (P03070 whole entry): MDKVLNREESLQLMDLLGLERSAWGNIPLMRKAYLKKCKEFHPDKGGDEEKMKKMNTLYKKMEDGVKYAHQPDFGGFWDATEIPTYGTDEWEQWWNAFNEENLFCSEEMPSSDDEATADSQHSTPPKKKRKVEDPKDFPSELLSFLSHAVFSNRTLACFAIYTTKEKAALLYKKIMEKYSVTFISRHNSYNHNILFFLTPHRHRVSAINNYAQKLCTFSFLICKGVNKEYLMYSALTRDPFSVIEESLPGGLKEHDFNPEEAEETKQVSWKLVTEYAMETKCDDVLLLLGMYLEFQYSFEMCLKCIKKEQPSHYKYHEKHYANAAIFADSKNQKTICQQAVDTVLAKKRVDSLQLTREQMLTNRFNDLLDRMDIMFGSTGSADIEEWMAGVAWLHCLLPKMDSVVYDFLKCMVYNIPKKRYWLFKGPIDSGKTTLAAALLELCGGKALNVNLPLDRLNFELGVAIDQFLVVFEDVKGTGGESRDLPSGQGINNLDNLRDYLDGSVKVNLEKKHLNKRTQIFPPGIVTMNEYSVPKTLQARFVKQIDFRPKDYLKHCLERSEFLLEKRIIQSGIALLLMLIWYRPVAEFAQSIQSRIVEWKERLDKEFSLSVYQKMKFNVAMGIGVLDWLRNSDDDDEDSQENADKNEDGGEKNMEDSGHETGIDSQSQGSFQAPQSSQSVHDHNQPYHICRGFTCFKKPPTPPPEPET
# [7] = molecular target: T2, Alkaline phosphatase, tissue-nonspecific isozyme (Homo sapiens, UniProt P05186); test: activation of tissue-nonspecific alkaline phosphatase – biochemical, TNAP isozyme, mouse IAP uHTS hits, selectivity assay for mouse IAP activator project, dose response (AID 488880); assay type: functional
# T2 sequence (P05186 whole entry): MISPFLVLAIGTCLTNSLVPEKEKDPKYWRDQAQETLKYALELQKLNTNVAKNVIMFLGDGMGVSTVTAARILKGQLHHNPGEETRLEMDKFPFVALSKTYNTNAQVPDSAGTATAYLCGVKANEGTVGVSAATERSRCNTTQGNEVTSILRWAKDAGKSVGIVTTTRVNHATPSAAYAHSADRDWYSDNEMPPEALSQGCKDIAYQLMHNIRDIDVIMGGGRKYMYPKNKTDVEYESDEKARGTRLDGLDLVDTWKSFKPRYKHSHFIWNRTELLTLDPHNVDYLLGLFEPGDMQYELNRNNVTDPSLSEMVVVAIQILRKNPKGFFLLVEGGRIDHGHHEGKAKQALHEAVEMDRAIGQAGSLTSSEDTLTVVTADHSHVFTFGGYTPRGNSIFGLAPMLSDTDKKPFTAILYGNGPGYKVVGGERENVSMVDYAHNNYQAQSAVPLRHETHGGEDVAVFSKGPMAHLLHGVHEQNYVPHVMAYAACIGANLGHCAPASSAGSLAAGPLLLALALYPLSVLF
# [8] = molecular target: Intestinal-type alkaline phosphatase (Homo sapiens, UniProt P09923); test: activation of human intestinal alkaline phosphatase – biochemical, dose response (AID 488873); assay type: functional
# Intestinal-type alkaline phosphatase (Homo sapiens, UniProt P09923), sequence (P09923 whole entry): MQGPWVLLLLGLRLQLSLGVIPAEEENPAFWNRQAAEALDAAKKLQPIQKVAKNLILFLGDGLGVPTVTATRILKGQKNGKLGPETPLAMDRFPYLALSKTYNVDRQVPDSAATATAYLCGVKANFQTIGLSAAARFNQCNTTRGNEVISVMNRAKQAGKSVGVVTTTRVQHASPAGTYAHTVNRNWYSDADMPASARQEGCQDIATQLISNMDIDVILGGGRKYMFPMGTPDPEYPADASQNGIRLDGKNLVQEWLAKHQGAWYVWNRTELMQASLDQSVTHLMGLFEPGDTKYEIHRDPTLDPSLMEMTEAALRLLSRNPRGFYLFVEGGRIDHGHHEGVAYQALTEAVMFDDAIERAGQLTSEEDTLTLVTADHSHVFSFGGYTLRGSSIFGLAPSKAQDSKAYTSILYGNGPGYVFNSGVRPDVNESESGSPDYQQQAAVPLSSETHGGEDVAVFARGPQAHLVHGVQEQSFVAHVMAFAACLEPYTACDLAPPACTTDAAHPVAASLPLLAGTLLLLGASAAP
# [9] = molecular target: T3, Histone-lysine N-methyltransferase NSD2 (Homo sapiens, UniProt O96028); assay type: biochemical
# T3 sequence (O96028 whole entry): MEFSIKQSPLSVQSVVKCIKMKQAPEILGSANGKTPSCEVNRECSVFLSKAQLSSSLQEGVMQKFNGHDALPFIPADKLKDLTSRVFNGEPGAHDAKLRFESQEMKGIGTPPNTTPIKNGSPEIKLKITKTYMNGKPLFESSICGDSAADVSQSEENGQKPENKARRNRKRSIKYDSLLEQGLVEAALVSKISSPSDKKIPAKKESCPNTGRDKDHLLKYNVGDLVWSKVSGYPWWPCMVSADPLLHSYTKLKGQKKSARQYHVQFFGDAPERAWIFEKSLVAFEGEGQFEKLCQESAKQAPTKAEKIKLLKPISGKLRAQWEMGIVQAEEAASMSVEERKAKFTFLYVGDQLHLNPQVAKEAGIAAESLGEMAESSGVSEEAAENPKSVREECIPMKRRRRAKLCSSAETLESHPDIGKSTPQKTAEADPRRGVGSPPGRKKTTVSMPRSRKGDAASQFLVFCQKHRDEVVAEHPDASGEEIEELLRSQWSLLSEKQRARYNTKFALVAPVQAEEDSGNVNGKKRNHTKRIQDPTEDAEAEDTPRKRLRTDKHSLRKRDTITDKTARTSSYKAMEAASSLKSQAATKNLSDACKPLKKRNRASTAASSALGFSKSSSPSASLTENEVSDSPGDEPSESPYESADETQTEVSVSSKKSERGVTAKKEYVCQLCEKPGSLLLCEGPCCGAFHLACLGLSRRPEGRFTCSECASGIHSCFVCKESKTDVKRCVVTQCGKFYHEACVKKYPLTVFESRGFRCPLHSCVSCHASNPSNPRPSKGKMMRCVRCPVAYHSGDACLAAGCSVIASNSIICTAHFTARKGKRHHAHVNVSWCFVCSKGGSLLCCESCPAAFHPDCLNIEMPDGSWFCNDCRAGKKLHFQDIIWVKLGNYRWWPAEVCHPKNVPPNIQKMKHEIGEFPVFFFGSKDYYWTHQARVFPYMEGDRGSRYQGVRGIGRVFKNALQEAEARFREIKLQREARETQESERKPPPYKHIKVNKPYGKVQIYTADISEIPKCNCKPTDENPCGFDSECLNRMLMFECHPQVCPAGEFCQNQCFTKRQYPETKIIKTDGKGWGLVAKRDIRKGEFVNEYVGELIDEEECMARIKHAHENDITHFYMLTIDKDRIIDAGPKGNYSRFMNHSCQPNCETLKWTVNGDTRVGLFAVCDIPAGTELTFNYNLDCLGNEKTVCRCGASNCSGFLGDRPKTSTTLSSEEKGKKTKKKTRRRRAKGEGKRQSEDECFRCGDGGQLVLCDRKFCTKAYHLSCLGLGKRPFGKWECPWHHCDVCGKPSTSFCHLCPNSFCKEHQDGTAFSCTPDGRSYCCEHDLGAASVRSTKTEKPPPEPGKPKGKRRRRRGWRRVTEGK
# [10] = molecular target: Intestinal-type alkaline phosphatase (Mus musculus, UniProt P24822); test: mouse intestinal alkaline phosphatase activators, dose response, biochemical, luminescence, uHTS hits (AID 488783); assay type: functional
# Intestinal-type alkaline phosphatase (Mus musculus, UniProt P24822), sequence (P24822 whole entry): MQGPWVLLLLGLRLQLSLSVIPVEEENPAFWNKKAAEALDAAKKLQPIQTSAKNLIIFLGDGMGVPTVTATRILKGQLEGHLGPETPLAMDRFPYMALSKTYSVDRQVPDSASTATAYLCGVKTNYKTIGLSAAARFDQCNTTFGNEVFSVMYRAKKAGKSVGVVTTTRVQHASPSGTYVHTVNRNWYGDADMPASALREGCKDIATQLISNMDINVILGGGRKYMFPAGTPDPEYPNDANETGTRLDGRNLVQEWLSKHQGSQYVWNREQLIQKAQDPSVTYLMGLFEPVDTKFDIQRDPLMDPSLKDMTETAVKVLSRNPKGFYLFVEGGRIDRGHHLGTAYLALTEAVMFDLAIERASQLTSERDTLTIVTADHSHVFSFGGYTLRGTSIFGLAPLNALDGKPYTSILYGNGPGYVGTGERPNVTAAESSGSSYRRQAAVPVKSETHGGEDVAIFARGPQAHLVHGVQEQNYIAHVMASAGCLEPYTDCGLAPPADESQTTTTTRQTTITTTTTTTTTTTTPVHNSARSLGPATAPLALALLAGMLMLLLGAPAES
# Mucolipin-3 = molecular target: T4, Mucolipin-3 (Homo sapiens, UniProt Q8TDD5); test: Fluorescence counterscreen assay for […] agonists: dose response cell-based high-throughput screening assay to identify agonists of the transient receptor potential channel ML3 (TRPML3). [Related pubchem assays: 1424, 1448 ]; assay type: functional
# T4 sequence (Q8TDD5 whole entry): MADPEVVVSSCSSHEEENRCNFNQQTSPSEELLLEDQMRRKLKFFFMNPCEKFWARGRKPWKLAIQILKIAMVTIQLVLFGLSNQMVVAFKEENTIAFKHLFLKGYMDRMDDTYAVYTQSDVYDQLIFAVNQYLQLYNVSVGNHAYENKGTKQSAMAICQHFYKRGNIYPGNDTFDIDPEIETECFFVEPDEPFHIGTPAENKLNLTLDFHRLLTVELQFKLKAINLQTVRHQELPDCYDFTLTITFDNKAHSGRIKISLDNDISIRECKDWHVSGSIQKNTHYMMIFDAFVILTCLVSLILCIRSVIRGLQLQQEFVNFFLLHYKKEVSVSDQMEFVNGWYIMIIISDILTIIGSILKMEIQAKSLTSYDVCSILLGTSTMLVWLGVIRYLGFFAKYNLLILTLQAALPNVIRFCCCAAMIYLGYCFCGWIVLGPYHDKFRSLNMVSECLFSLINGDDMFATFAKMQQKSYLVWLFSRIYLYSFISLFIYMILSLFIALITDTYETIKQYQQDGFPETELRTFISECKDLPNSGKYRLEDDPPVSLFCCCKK
# Ion channel NompC = Ion channel NompC (Danio rerio, UniProt Q7T1G6); test: Dose response cell-based high-throughput screening assay for agonists of the transient receptor potential channel N1 (TRPN1). [Related pubchem assays (depositor defined):AID1424, AID1448]; assay type: functional
# Ion channel NompC, sequence (Q7T1G6 whole entry): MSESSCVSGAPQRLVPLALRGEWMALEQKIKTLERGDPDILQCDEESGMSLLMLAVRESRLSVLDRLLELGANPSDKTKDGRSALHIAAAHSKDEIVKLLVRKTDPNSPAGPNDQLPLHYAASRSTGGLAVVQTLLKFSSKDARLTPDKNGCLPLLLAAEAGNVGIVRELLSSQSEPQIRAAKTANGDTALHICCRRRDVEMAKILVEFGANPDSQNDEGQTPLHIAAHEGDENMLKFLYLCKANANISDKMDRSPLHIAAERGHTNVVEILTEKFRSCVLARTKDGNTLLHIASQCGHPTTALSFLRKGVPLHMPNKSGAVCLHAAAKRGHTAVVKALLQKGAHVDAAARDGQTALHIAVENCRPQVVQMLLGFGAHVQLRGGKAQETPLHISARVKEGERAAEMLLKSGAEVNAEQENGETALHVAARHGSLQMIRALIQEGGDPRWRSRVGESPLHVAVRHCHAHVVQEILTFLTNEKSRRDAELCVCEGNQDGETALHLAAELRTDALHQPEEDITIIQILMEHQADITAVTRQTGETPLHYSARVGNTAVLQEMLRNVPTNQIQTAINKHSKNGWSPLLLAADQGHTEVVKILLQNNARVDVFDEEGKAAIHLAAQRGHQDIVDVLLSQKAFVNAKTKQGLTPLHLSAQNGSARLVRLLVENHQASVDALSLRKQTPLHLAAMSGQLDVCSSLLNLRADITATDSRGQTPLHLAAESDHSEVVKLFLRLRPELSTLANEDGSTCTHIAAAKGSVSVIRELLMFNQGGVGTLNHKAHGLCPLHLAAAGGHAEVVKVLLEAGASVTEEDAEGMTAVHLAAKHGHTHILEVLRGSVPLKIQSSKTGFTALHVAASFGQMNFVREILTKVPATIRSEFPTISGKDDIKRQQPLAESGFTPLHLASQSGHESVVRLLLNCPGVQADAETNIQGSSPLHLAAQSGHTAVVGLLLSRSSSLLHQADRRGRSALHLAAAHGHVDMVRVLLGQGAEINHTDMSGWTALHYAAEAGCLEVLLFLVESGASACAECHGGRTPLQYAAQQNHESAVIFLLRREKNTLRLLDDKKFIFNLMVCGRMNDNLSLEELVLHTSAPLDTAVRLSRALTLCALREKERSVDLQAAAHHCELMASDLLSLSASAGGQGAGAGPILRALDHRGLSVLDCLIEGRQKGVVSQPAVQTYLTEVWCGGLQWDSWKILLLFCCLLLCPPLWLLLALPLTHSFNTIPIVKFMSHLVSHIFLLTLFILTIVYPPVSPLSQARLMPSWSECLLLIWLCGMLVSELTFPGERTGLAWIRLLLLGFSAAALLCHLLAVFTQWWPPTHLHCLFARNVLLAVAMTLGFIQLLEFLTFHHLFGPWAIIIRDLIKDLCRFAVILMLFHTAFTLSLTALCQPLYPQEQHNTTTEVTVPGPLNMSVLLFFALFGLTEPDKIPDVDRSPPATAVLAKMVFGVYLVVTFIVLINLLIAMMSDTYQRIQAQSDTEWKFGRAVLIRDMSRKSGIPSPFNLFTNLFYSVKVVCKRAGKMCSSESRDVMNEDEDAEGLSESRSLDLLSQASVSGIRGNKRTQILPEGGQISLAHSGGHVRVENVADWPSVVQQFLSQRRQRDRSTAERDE
# BJ [11] = test: cells; assay type: functional, cell-based; conditions: Homo sapiens
# BJ [12] = test: BJ-TERT-LT-ST fibroblast viability loss – cell-based, RAS-independent, luminescence, dose response (AID 1935); assay type: functional; conditions: Homo sapiens;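 also: BJ fibroblasts immortalized with TERT plus LT and ST oncogenes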
# [13] = non-specific 3'UTR reporter inhibition in Clone20-Shn3RL – cell-based, Renilla luciferase, cherry-picked, counter-screen for Shn3 inhibitor project, dose response (AID 624133); assay type: functional
# [14] = loss of viability in HepG2 cells – cell-based, CellTiter-Glo, cherry-picked, cytotoxicity control for Shn3 inhibitor project, dose response (AID 624134); assay type: functional
# [15] = viability of PTEN-deleted HCT116 cells – cell-based, HCT116 PTEN knockout, dose response (AID 1047); assay type: functional;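 also: HCT116 colon tumor cells with PTEN knocked out; cells exposed to compound for 60 hours before readout; potency for loss of cell viability measured by luminescence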
# [16] = HEK-293T cell viability reduction – luminescence, B-cell screen hits, cytotoxicity control for BCR NF-kB inhibitor project, dose response (AID 489021); assay type: functional, cell-based;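 also: HEK-293T cells carrying an NF-kB luciferase reporter; cells exposed to compound for about 14 hours before viability readout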
# [17] = DRD fibroblast viability loss – cell-based, non-viral oncogenic, luminescence, dose response (AID 1934); assay type: functional; conditions: Homo sapiens
# [18] = reduction of Shn3 3'UTR-driven luciferase in osteoblasts – cell-based, Clone20 osteoblasts, firefly luciferase, cherry-picked, dose response (AID 624132); assay type: functional;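 also: firefly luciferase luminescence from reporter carrying the Shn3 3'UTR in osteoblasts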
# [19] = viability of HCT116 lacking mutant beta-catenin – cell-based, human colon tumor, dose response (AID 1045); assay type: functional;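 also: HCT116 colon tumor cells with beta catenin knocked out; cells exposed to compound for 60 hours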
# BJ [20] = test: BJ-TERT fibroblast viability loss – cell-based, RAS-independent, luminescence, dose response (AID 1933); assay type: functional; conditions: Homo sapiens
# [21] = molecular target: T5, Microphthalmia-associated transcription factor (Homo sapiens, UniProt O75030); test: reducers of TRPM1 reporter luminescence, concentration series – cell-based, SK-MEL-5, cherry-picked, set 3, MITF inhibitor project, dose response (AID 493073); assay type: functional;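 also: SK-MEL-5 melanoma cells with luciferase driven by the MITF target TRPM1 promoter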
# T5 sequence (O75030 whole entry): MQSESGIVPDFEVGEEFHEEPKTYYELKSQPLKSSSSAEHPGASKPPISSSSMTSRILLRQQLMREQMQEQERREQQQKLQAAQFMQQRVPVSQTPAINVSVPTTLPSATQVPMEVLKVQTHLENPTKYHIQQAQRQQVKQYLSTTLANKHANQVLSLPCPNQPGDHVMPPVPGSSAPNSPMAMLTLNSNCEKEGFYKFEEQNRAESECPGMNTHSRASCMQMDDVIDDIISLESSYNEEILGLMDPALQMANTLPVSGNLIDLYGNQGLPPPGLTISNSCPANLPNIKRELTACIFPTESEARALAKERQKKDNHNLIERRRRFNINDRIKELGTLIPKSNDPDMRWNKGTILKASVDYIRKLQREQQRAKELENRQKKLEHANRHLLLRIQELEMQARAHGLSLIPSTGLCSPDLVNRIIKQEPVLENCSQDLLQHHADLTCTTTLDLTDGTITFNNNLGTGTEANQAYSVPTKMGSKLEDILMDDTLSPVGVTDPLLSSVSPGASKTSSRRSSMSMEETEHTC
smiles,measurement,setting,value
CCCC(NCC(O)COc1ccc(-c2ccccc2)cc1)c1ccccc1 (stereo unspecified),EC50,[1],17.6 µM (active)
same,IC50,cells,12 µM (active)
same,CC50,[2],15.7 µM (active)
same,CC50,[3],12.6 µM (active)
same,CC50,[4],> 20 µM (active)
same,CC50,[5],12.7 µM (active)
same,IC50,Protein skinhead-1,> 100 µM (inactive)
same,EC50,[6],2.1 µM (active)
O=C(CSc1nc2ccccc2o1)N/N=C/c1ccc(O)c(O)c1,IC50,Large T antigen,6.69 µM (active)
same,EC50,[7],61.7 µM (active)
same,EC50,[8],63 µM (active)
same,AC50,[9],0.742 µM (active)
same,EC50,[10],69.9 µM (active)
O=C(O)c1cc2c(cc1Br)OCCCO2,EC50,Mucolipin-3,> 29.9 µM (not active)
same,EC50,Ion channel NompC,> 29.9 µM (inactive)
COc1ccc(C(C(=O)NC2CCCCC2)N(C(=O)CCl)c2ccc(OC)cc2)cc1 (stereo unspecified),EC50,BJ [11],5.19 µM (active)
same,EC50,BJ [12],8.28 µM (inconclusive)
same,AC50,[13],14.8 µM (active)
same,AC50,[14],> 70 µM (inactive)
same,EC50,[15],0.959 µM (active)
same,IC50,[16],> 80 µM (inactive)
same,EC50,[17],1.26 µM (active)
same,AC50,[18],5.56 µM (active)
same,EC50,[19],0.721 µM (active)
same,EC50,BJ [20],1.15 µM (inconclusive)
same,AC50,[21],9.27 µM (active)
